Data: patent US8211935B2, “Heterocyclic derivatives for modulation of calcium channels” (Vertex Pharmaceuticals Incorporated, priority 2004, dated 2012)
Like-named read-outs stand apart in the source and are kept apart here.

Target: T1, CaV2.2 (Homo sapiens, UniProt Q00975)
T1 construct: expressed in transfected cells; host or cells: HEK293
Test: VIPR optical membrane potential assay with electrical stimulation
Type: cell-based
Summary of the method: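 HEK293 cells stably expressing CaV2.2, stained with CC2-DMPE (10 μM final) and oxonol voltage-sensitive dyes, compound added with BaCl2. Membrane potential response evoked by 3-5 s electrical stimulation. Read as background-subtracted 460/580 nm emission ratio, response R=Rf/Ri, normalized to mibefradil positive and no-drug negative controls.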

[1] = Table 3, biological assay data, read-out: IC50

T1 sequence (Q00975 whole entry): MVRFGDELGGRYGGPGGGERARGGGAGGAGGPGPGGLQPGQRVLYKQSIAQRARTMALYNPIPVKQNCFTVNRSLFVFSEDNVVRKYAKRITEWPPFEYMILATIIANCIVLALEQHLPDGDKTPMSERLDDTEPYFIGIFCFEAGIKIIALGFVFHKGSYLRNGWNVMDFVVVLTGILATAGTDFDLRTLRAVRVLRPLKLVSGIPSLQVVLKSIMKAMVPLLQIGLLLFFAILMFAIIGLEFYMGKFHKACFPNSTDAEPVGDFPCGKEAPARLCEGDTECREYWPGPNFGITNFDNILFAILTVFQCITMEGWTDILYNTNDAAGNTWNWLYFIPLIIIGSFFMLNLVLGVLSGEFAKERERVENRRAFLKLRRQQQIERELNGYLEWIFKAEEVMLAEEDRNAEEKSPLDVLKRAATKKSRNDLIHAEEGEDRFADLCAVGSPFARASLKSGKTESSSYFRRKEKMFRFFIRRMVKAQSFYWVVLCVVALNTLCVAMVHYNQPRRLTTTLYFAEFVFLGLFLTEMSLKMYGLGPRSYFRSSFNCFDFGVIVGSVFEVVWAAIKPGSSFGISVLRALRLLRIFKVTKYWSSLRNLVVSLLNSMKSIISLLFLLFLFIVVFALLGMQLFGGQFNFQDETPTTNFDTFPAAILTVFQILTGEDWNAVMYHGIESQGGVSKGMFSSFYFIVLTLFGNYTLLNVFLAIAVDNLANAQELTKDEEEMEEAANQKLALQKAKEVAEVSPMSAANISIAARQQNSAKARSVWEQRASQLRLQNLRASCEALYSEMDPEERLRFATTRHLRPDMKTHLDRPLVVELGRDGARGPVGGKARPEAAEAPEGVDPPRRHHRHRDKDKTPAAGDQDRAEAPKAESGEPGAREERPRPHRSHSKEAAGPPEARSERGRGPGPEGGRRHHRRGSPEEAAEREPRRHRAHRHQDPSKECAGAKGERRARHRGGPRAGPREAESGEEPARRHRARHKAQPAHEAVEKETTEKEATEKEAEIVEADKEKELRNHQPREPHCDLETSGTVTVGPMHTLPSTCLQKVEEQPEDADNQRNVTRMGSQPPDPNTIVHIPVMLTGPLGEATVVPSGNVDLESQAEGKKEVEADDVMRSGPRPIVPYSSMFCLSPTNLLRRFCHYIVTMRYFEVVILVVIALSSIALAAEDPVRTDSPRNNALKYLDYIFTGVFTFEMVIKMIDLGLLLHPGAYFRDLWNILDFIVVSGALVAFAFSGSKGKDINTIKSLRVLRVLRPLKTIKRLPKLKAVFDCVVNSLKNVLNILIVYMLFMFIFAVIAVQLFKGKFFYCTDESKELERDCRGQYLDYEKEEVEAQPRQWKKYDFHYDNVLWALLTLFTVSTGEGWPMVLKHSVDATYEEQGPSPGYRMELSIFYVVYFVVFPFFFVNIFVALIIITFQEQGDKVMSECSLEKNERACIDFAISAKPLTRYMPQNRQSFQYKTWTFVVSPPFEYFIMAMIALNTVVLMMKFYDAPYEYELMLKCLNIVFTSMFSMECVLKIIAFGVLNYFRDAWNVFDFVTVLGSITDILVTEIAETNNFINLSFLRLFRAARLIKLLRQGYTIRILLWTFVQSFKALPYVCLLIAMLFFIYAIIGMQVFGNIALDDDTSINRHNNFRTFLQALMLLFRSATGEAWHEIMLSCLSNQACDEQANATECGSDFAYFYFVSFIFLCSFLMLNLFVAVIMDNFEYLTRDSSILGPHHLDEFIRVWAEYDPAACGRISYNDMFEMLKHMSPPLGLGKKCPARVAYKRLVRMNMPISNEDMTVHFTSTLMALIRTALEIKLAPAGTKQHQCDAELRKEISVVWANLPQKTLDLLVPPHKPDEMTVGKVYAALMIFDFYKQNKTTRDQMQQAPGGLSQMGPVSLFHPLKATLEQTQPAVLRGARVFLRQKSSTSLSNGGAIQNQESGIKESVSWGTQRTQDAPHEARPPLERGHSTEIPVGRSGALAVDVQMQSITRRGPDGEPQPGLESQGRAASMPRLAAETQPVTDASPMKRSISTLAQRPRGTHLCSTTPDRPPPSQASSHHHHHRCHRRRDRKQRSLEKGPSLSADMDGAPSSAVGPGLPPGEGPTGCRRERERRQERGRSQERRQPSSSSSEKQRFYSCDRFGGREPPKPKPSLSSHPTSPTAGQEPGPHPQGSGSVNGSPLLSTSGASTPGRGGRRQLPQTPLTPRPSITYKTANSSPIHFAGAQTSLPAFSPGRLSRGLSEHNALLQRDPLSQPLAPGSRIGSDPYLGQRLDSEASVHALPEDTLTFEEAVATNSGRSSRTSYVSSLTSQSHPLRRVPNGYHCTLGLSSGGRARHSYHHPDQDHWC
T1 sequence (P54284 whole entry partner): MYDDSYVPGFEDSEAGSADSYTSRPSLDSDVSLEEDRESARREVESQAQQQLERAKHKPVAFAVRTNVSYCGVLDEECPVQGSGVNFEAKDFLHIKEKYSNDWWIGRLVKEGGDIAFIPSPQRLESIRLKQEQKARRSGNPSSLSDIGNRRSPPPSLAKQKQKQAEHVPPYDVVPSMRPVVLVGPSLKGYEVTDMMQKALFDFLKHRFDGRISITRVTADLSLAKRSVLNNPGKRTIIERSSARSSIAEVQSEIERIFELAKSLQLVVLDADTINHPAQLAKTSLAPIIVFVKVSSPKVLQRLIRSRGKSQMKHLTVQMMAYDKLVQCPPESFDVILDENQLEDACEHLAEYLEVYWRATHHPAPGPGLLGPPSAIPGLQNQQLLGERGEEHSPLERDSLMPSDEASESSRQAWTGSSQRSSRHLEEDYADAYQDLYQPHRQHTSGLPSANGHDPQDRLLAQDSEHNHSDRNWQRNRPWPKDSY
T1 sequence (P54289 25-946 partner limits assumed): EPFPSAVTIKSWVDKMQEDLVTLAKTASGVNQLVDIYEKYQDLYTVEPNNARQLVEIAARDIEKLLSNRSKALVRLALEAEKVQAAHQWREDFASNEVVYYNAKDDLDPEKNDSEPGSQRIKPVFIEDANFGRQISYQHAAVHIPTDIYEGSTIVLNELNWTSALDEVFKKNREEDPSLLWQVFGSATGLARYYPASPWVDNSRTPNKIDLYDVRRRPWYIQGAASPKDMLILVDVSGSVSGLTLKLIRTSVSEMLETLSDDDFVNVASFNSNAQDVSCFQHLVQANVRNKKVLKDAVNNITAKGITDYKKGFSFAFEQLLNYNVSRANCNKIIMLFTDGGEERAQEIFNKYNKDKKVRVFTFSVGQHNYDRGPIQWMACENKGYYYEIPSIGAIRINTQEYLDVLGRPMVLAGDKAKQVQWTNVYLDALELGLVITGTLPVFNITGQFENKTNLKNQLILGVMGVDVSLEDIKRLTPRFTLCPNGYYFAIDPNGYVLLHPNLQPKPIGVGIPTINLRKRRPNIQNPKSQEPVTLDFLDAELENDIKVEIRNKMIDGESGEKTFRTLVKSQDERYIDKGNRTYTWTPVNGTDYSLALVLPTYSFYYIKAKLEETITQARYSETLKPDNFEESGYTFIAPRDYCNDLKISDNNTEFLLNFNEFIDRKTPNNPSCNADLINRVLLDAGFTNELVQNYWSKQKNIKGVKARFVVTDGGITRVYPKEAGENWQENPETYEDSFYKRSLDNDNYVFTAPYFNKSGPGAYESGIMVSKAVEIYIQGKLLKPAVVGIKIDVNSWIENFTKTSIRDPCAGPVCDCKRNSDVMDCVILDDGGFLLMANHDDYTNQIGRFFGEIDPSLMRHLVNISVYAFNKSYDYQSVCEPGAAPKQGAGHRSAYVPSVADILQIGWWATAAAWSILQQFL
T1 sequence (P54289 947-1103 partner limits assumed): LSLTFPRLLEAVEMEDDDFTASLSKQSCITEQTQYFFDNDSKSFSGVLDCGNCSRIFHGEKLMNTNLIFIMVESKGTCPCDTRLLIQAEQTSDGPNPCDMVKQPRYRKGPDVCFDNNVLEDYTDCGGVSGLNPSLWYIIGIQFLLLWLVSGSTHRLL

Row | Compound | IC50 [1] [µM] | IC50 [µM]
1 | CCN(CC)C(=O)c1cc2cc(S(=O)(=O)N3CCC(C)CC3)ccc2o1 [compound 268] | < 5 | 
2 | Cc1c(C(=O)N2CCC(C)CC2)[nH]c2ccc(S(=O)(=O)N3CCC(C)CC3)cc12 [compound 269] | 5 to 20 | 
3 | O=C(NC1CC1)c1cc2cc(N(C3CCCCC3)S(=O)(=O)c3ccccc3)ccc2[nH]1 [compound 270] | 5 to 20 | 
4 | CC1CC(C)CN(S(=O)(=O)c2ccc3oc(C(=O)NC(C)C)cc3c2)C1 (stereo not shown) [compound 271] | < 5 | 
5 | O=C(c1cc2cc(S(=O)(=O)N3CCCCCC3)ccc2[nH]1)N1CCCC1 [compound 272] | < 20 | 
6 | CC1CCN(C(=O)c2cc3cc(S(=O)(=O)N4CCC(C)CC4)ccc3o2)CC1 [compound 273] | < 5 | 
7 | CC1CC(C)CN(S(=O)(=O)c2ccc3[nH]c(C(=O)NC(C)C)cc3c2)C1 (stereo not shown) [compound 274] | < 5 | 
8 | CC1CC(C)CN(S(=O)(=O)c2ccc3[nH]c(C(=O)NCC4CCOCC4)cc3c2)C1 (stereo not shown) [compound 275] | < 5 | 
9 | CC1CC(C)CN(S(=O)(=O)c2ccc3oc(C(=O)NCc4ccccc4)cc3c2)C1 (stereo not shown) [compound 276] | < 5 | 
10 | Cc1c(C(=O)N(C)C)oc2ccc(S(=O)(=O)N3CCCCC3)cc12 [compound 277] | < 20 | 
11 | CCN(CC)S(=O)(=O)c1ccc2oc(C(=O)N(C(C)C)C(C)C)c(C)c2c1 [compound 278] | 5 to 20 | 
12 | Cc1c(C(=O)N2CCC(C)CC2)oc2ccc(S(=O)(=O)N3CCCCC3)cc12 [compound 279] | 5 to 20 | 
13 | Cc1c(C(=O)N2CCCC(C)C2)oc2ccc(S(=O)(=O)N3CCCCC3)cc12 (stereo not shown) [compound 280] | 5 to 20 | 
14 | Cc1c(C(=O)NCC2CCCO2)[nH]c2ccc(S(=O)(=O)N3CC(C)CC(C)C3)cc12 (stereo not shown) [compound 281] | < 5 | 
15 | COc1ccc(CNC(=O)c2oc3ccc(S(=O)(=O)N4CCC(C)CC4)cc3c2C)cc1 [compound 282] | < 5 | 
16 | Cc1c(C(=O)NCc2ccccc2)[nH]c2ccc(S(=O)(=O)N3CC(C)CC(C)C3)cc12 (stereo not shown) [compound 283] | < 5 | 
17 | Cc1c(C(=O)N(C(C)C)C(C)C)oc2ccc(S(=O)(=O)N3CC(C)CC(C)C3)cc12 (stereo not shown) [compound 284] | < 5 | 
18 | CC1CCN(S(=O)(=O)c2ccc3[nH]c(C(=O)N(C)Cc4ccccc4)cc3c2)CC1 [compound 285] | < 5 | 
19 | CS(=O)(=O)Nc1ccc2[nH]c(C(=O)NC3CC3)cc2c1 [compound 286] | < 20 | 
20 | Cc1c(C(=O)N2CCC3(CC2)OCCO3)oc2ccc(S(=O)(=O)N3CCC(C)CC3)cc12 [compound 287] |  | 5 to 20
21 | Cc1ccc(NS(=O)(=O)c2ccc3oc(C(=O)NC4CC4)c(C)c3c2)cc1 [compound 288] | 5 to 20 | 
22 | CC1CC(C)CN(S(=O)(=O)c2ccc3[nH]c(C(=O)NCCc4ccccc4)cc3c2)C1 (stereo not shown) [compound 289] | < 5 | 
23 | Cc1c(C(=O)N2CCN(C)CC2)[nH]c2ccc(S(=O)(=O)N3CCC(C)CC3)cc12 [compound 290] | 5 to 20 | 
24 | CCN(CC)S(=O)(=O)c1ccc2oc(C(=O)NCCc3ccccc3)c(C)c2c1 [compound 291] | 5 to 20 | 
25 | COc1ccc(S(=O)(=O)n2c(C(=O)N3CCCCC3)cc3cc(S(=O)(=O)N4CC(C)CC(C)C4)ccc32)cc1 (stereo not shown) [compound 292] | < 5 | 
26 | CC1CCN(S(=O)(=O)c2ccc3oc(C(=O)N4CC(C)CC(C)C4)cc3c2)CC1 (stereo not shown) [compound 293] | < 5 | 
27 | Cc1c(C(=O)NC2CCCC2)oc2ccc(S(=O)(=O)N3CCCCCC3)cc12 [compound 294] | < 5 | 

Row | Compound | IC50 [1] [µM] | IC50 [µM]
28 | CNC(=O)c1cc2cc(S(=O)(=O)N3CCCCCC3)ccc2o1 [compound 295] | 5 to 20 | 
29 | O=C(NC1CCCCC1)c1cc2cc(S(=O)(=O)N3CCCCCC3)ccc2[nH]1 [compound 296] | < 20 | 
30 | Cc1c(C(=O)N2CCCCC2C)[nH]c2ccc(S(=O)(=O)N3CC(C)CC(C)C3)cc12 (stereo not shown) [compound 297] | < 5 | 
31 | CCN(CC)S(=O)(=O)c1ccc2oc(C(=O)NCc3ccc(C)cc3)c(C)c2c1 [compound 298] | 5 to 20 | 
32 | Cc1c(C(=O)N2CCC3(CC2)OCCO3)oc2ccc(S(=O)(=O)N3CCCC(C)C3)cc12 (stereo not shown) [compound 299] |  | 5 to 20
33 | Cc1c(C(=O)N2CCCCC2)oc2ccc(S(=O)(=O)N3CCCC(C)C3)cc12 (stereo not shown) [compound 300] | < 5 | 
34 | CCNC(=O)c1[nH]c2ccc(S(=O)(=O)N3CCC(C)CC3)cc2c1C [compound 301] | 5 to 20 | 
35 | Cc1c(C(=O)NC2CC2)oc2ccc(S(=O)(=O)NCc3ccncc3)cc12 [compound 302] | < 20 | 
36 | CNC(=O)c1cc2cc(S(=O)(=O)N3CCCCCC3)ccc2[nH]1 [compound 303] | < 5 | 
37 | O=C(NC1CCCC1)c1cc2cc(S(=O)(=O)N3CCCCCC3)ccc2o1 [compound 304] | < 5 | 
38 | Cc1c(C(=O)NCc2ccccc2)oc2ccc(S(=O)(=O)N3CCCCC3)cc12 [compound 305] | 5 to 20 | 
39 | CC1CCN(S(=O)(=O)c2ccc3[nH]cc(C(N)=O)c3c2)CC1 [compound 306] | < 20 | 
40 | Cc1c(C(=O)N2CCC(C)CC2)oc2ccc(S(=O)(=O)N3CCCCCC3)cc12 [compound 307] | < 5 | 
41 | CCN(CC)S(=O)(=O)c1ccc2oc(C(=O)N(C)Cc3ccccc3)c(C)c2c1 [compound 308] | < 5 | 
42 | Cc1c(C(=O)NC2CCCCC2)[nH]c2ccc(S(=O)(=O)N3CCCCCC3)cc12 [compound 309] | < 5 | 
43 | CCNC(=O)c1oc2ccc(S(=O)(=O)N3CCCC(C)C3)cc2c1C (stereo not shown) [compound 310] | 5 to 20 | 
44 | CC1CCN(S(=O)(=O)c2ccc3oc(C(=O)N4CCCCC4)cc3c2)CC1 [compound 311] | < 5 | 
45 | CN(c1ccc2[nH]c(C(=O)NC3CC3)cc2c1)S(=O)(=O)c1ccccc1 [compound 312] | 5 to 20 | 
46 | CC1CCN(S(=O)(=O)c2ccc3[nH]c(C(=O)N4CCN(C)CC4)cc3c2)CC1 [compound 313] | 5 to 20 | 
47 | CCN(CC)C(=O)c1cc2cc(S(=O)(=O)N3CC(C)CC(C)C3)ccc2n1CC(O)CN(C)C (stereo not shown) [compound 314] | 5 to 20 | 
48 | CCN(CC)C(=O)c1cc2cc(S(=O)(=O)N3CCC(C)CC3)ccc2[nH]1 [compound 315] | < 5 | 
49 | Cc1c(C(=O)NC2CC2)oc2ccc(S(=O)(=O)Nc3ncns3)cc12 [compound 316] | < 20 | 
50 | Cc1c(C(=O)N(C)Cc2ccccc2)oc2ccc(S(=O)(=O)N3CCCCCC3)cc12 [compound 317] | < 5 | 
51 | CCN(CC)S(=O)(=O)c1ccc2oc(C(=O)NCCCc3ccccc3)c(C)c2c1 [compound 318] | 5 to 20 | 
52 | CC1CCN(S(=O)(=O)c2ccc3[nH]c(C(=O)N4CC(C)CC(C)C4)cc3c2)CC1 (stereo not shown) [compound 319] | 5 to 20 | 
53 | Cc1c(C(=O)NCCC2=CCCCC2)oc2ccc(S(=O)(=O)N3CCC4(CC3)OCCO4)cc12 [compound 320] | 5 to 20 | 
54 | CCCCN(C)C(=O)c1oc2ccc(S(=O)(=O)N3CC(C)CC(C)C3)cc2c1C (stereo not shown) [compound 321] | < 5 | 

Row | Compound | IC50 [1] [µM] | IC50 [µM]
55 | CCN(CC)S(=O)(=O)c1ccc2oc(C(=O)NCCC3CCOCC3)c(C)c2c1 [compound 322] | < 20 | 
56 | CC1CC(C)CN(S(=O)(=O)c2ccc3[nH]c(C(=O)NCCCc4ccccc4)cc3c2)C1 (stereo not shown) [compound 323] | < 5 | 
57 | Cc1c(C(=O)N2CCCC2)[nH]c2ccc(S(=O)(=O)N3CC(C)CC(C)C3)cc12 (stereo not shown) [compound 324] | < 5 | 
58 | CCCCN(C)C(=O)c1oc2ccc(S(=O)(=O)N3CCC(C)CC3)cc2c1C [compound 325] | < 5 | 
59 | CCN(CC)Cc1cc2cc(S(=O)(=O)N3CCC(C)CC3)ccc2[nH]1 [compound 326] | < 5 | 
60 | CC1CC(C)CN(S(=O)(=O)c2ccc3oc(C(=O)NCC4CCOCC4)cc3c2)C1 (stereo not shown) [compound 327] | < 5 | 
61 | CCOC(=O)N1CCN(C(=O)c2oc3ccc(S(=O)(=O)N(CC)CC)cc3c2C)CC1 [compound 328] | < 20 | 
62 | CC1CC(C)CN(S(=O)(=O)c2ccc3[nH]c(C(=O)NC4CCCCC4)cc3c2)C1 (stereo not shown) [compound 329] | 5 to 20 | 
63 | Cc1c(C(=O)N2CCCCCC2)oc2ccc(S(=O)(=O)N3CC(C)CC(C)C3)cc12 (stereo not shown) [compound 330] | < 5 | 
64 | Cc1c(C(=O)NC2CCCCC2)[nH]c2ccc(S(=O)(=O)N3CC(C)CC(C)C3)cc12 (stereo not shown) [compound 331] | < 5 | 
65 | CCN(CC)S(=O)(=O)c1ccc2oc(C(=O)N3CCCC3)c(C)c2c1 [compound 332] | < 20 | 
66 | CC1CC(C)CN(S(=O)(=O)c2ccc3oc(C(=O)N4CCCCC4C)cc3c2)C1 (stereo not shown) [compound 333] | 5 to 20 | 
67 | Cc1c(C(=O)N2CCCCC2C)oc2ccc(S(=O)(=O)N3CCCCCC3)cc12 (stereo not shown) [compound 334] | 5 to 20 | 
68 | O=C(NCCC1CCOCC1)c1cc2cc(S(=O)(=O)N3CCCCCC3)ccc2[nH]1 [compound 335] | < 5 | 
69 | CCOC(=O)C1CCN(C(=O)c2oc3ccc(S(=O)(=O)N4CC(C)CC(C)C4)cc3c2C)CC1 (stereo not shown) [compound 336] | < 5 | 
70 | CCN(CC)S(=O)(=O)c1ccc2oc(C(=O)NCc3ccc(F)cc3)c(C)c2c1 [compound 337] | < 5 | 
71 | CC1CCN(S(=O)(=O)c2ccc3[nH]cc(C(=O)N4CCN(C)CC4)c3c2)CC1 [compound 338] | < 20 | 
72 | CC1CCN(C(=O)c2cc3cc(S(=O)(=O)N4CC(C)CC(C)C4)ccc3o2)CC1 (stereo not shown) [compound 339] | < 5 | 
73 | CC1CCN(S(=O)(=O)c2ccc3[nH]c(C(=O)NCCc4ccccc4)cc3c2)CC1 [compound 340] | < 5 | 
74 | CCN(CC)S(=O)(=O)c1ccc2oc(C(=O)N3CCCCCC3)c(C)c2c1 [compound 341] | 5 to 20 | 
75 | Cc1c(C(=O)N2CCC(C)CC2)[nH]c2ccc(S(=O)(=O)N3CCCCCC3)cc12 [compound 342] | < 5 | 
76 | Cc1c(C(=O)N2CCC3(CC2)OCCO3)oc2ccc(S(=O)(=O)N3CC(C)CC(C)C3)cc12 (stereo not shown) [compound 343] |  | 5 to 20
77 | CC1CC(C)CN(S(=O)(=O)c2ccc3[nH]c(C(=O)N4CCC5(CC4)OCCO5)cc3c2)C1 (stereo not shown) [compound 344] |  | < 5
78 | CC1CCN(S(=O)(=O)c2ccc3[nH]c(C(=O)NCC4CCOCC4)cc3c2)CC1 [compound 345] | < 5 | 
79 | CCOC(=O)N1CCN(C(=O)c2cc3cc(S(=O)(=O)N4CC(C)CC(C)C4)ccc3o2)CC1 (stereo not shown) [compound 346] | < 5 | 
